According to ChEMBL document CHEMBL5727862, “Inhibitors of plasma kallikrein and uses thereof” (2020):

Assay: Inhibitory Activity of Exemplary Compounds against Plasma Kallikrein: Example compounds were evaluated for inhibition of the human activated kallikrein enzyme in two formats of an assay employing a fluorogenic peptide substrate. In one assay format, the concentrations of reagents were as follows: 20 mM Tris pH 7.5, 1 mM EDTA, 150 mM sodium chloride, 0.1% PEG-400, 0.1% Triton X-100, 500 pM activated kallikrein enzyme, 300 uM Pro-Phe-Arg-7-amido-4-methylcoumarin substrate. Prior to reaction initiation with substrate, enzyme and inhibitors were preincubated for 30 min at RT. After initiation with substrate, reactions were incubated for 10 min at RT and fluorescence emission at 460 nm from 380 nm excitation measured with a microplate reader. In another assay format, the concentrations of reagents were as follows: 20 mM Tris pH 7.5, 1 mM EDTA, 150 mM sodium chloride, 0.1% PEG-400, 0.1% Triton X-100, 5 pM activated kallikrein enzyme, 300 uM Pro-Phe-Arg-7-amido-4-methylcoumarin substrate. Prior to reaction initiation with substrate, enzyme and inhibitors were preincubated for 30 min at RT. After initiation with substrate, reactions were incubated for 18 h at RT and fluorescence emission at 460 nm from 380 nm excitation measured with a microplate reader.

EC50	SMILES
< 1 nM	O=C(NCc1cn2c(F)c(Cl)ccc2n1)c1cn(Cc2cn3cc(C4CC4)cc(Cc4nnc(C(=O)O)o4)c3n2)nn1
< 1 nM	CCOC(=O)c1cc(C2CC2)cn2cc(Cn3cc(C(=O)NCc4ncn5ccc(Cl)c(F)c45)nn3)nc12
< 1 nM	CC(c1cn2cc(C3CC3)cc(C3CCC(=O)O3)c2n1)n1cc(C(=O)NCc2ncn3ccc(Cl)c(F)c23)nn1 (configuration not stated)
< 1 nM	CCOC(=O)C1CN(c2cc(C3CC3)cn3cc(Cn4cc(C(=O)NCc5ncn6ccc(Cl)c(F)c56)nn4)nc23)CCO1 (configuration not stated)
< 1 nM	O=C(NCc1cn2c(F)c(Cl)ccc2n1)c1cn(Cc2cn3cc(C4CC4)cc(Cc4nnco4)c3n2)nn1
< 1 nM	CC(C)(C)OC(=O)c1ncc(-c2cc(C3CC3)cn3cc(Cn4cc(C(=O)NCc5ncn6ccc(Cl)c(F)c56)nn4)nc23)s1
< 1 nM	CCOC(=O)c1ccn(Cc2cc(C3CC3)cn3cc(Cn4cc(C(=O)NCc5ncn6ccc(Cl)c(F)c56)nn4)nc23)n1
< 1 nM	O=C(NCc1ncn2ccc(Cl)c(F)c12)c1cn(Cc2cn3cc(C4CC4)ccc3n2)c(C(=O)O)n1
< 1 nM	O=C(OCc1ccccc1)c1cnn(Cc2cn3cc(C4CC4)cc(CO)c3n2)c1
< 1 nM	O=C(NCc1ncn2ccc(Cl)c(F)c12)c1cn(Cc2cn3cc(C4CC4)cc(CCl)c3n2)nn1
< 1 nM	O=C(NCc1ncn2ccc(Cl)c(F)c12)c1cn(Cc2cn3nc(C4CC4)cc(CN4CCCC4)c3n2)nn1

SMILES	EC50
CCOC(=O)c1cc(C2CC2)cn2cc(Cn3cc(C(=O)NCc4ncn5ccc(Cl)cc45)cn3)nc12	< 1 nM
